“Also recorded” adds a separate entry of the source. Where two headings read alike, the source gives them in different places.
Legend:
human TRPM2 = target: T1, human TRPM2 (Homo sapiens, UniProt O94759); assay: Whole-cell patch clamp, antagonism of TRPM2 activation by 100 μM ADPR in HEK293 clone TRPM2#24; format: cell-based; settings: for Antagonist activity at TRPM2, in words: analogue concentration not printed in the sentence (most analogues tested at 900 μM); for Mean outward current of 100 μM ADPR (1) infusion: mean ± SEM
T1 construct: Specific bands of full length TRPM2 (black arrow) and degradation products (gray arrows) are marked; expressed in transfected cells
T1 sequence (O94759 whole entry, the tested form may be a part): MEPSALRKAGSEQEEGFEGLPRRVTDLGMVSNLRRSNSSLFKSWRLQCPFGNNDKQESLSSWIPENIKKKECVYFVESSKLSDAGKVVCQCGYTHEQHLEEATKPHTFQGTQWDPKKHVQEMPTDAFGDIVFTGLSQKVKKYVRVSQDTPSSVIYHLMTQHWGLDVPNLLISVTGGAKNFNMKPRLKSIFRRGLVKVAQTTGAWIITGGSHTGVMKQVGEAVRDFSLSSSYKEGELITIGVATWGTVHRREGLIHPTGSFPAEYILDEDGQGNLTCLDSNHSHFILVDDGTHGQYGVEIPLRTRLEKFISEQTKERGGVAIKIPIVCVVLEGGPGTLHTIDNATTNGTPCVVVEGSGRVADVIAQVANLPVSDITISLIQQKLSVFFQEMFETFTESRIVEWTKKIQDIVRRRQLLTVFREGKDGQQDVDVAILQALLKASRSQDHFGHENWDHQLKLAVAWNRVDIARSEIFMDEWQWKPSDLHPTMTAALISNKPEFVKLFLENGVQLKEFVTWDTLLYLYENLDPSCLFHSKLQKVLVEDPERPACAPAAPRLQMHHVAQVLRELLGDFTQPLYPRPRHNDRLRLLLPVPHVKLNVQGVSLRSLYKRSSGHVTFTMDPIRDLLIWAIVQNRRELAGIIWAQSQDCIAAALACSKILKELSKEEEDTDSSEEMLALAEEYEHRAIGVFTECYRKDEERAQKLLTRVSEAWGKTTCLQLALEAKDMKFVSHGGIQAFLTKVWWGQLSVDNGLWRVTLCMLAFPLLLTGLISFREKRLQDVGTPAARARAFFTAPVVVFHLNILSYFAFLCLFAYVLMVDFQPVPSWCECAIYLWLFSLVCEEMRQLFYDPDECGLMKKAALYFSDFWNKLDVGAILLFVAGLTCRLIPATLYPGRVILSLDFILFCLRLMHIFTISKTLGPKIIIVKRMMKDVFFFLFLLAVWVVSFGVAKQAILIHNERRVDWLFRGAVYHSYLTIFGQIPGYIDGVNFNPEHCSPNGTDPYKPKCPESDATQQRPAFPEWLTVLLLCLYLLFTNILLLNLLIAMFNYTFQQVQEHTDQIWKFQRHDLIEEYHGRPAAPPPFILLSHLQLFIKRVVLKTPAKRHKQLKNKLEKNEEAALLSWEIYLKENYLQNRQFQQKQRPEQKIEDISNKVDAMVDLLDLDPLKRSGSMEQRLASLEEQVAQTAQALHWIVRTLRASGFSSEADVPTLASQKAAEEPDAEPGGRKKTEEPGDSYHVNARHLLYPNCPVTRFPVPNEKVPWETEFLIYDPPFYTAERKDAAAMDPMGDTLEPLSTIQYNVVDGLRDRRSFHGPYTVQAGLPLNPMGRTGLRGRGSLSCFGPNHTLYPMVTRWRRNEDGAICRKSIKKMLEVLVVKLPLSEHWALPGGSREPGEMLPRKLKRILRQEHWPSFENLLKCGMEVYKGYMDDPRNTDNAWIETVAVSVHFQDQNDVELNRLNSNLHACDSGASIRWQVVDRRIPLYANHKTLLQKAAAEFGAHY

TRPM2 channel = settings: read-out: TRPM2 inhibition IC50; cited from earlier work
human neutrophils = assay: Chemotaxis (migration) of primary human neutrophils in fMLP gradient, μ-Slide Chemotaxis; format: cell-based; settings: 50 nM fMLP gradient; fMLP alone, or with 1.5 mM EGTA, or with 100 μM 8-Ph-ADPR (5); 1 h tracking
TRPM2 = system: TRPM2; parameters: method as in PMID 20650899; settings: even at 60-fold excess of 88 over 1; cited from earlier work
murine neutrophils = system: murine neutrophils; parameters: method as in PMID 18025229; settings: cited from earlier work
[1] = analogue 900 μM with 100 μM ADPR in pipet solution
[2] = footnote d: could only be tested at 100 μM due to solubility difficulties, 100 μM ADPR, 0.1% DMSO, read-out: Antagonism at TRPM2 (IC50), result as symbol
[3] = analogue tested at 900 μM against 100 μM ADPR, footnote c: antagonistic effect observed but not statistically significant, read-out: Antagonism at TRPM2 (IC50), result as symbol
[4] = analogue 100 μM, equimolar to 100 μM ADPR in pipet solution
[5] = against 100 μM ADPR (1) in pipet solution, outward current at +15 mV, HEK293 clone TRPM2#24, read-out: Antagonism at TRPM2 (IC50)

Molecule: Nc1ncnc2c1ncn2[C@@H]1O[C@H](COP(=O)(O)OP(=O)(O)OC2CCCC2)[C@@H](O)[C@H]1O [compound 80, β-Cyclopentyl-ADP]
- Effect on activation of TRPM2 by ADPR (1), in words (human TRPM2; [1]): partial inhibition

Molecule: CCCCCCNc1c(NC[C@H]2O[C@@H](n3cnc4c(N)ncnc43)[C@H](O)[C@@H]2O)c(=O)c1=O [compound 67, 3-(5′-Amino-5′-deoxyadenosine)-4-(hexylamino)cyclobut-3-ene-1,2-dione]
- IC50 (human TRPM2; [2]): > 900 µM

Molecule: O=c1[nH]cnc2c1ccn2[C@@H]1O[C@H](COP(=O)(O)OP(=O)(O)OC[C@H]2OC(O)[C@H](O)[C@@H]2O)[C@@H](O)[C@H]1O (stereo partly shown) [compound 14, 7-Deaza-IDPR]
- Antagonist activity at TRPM2, in words (human TRPM2; 100 μM ADPR): without significant effect
- IC50 (human TRPM2; [3]): > 900 µM

Molecule: Nc1ncnc2c1ncn2[C@@H]1O[C@H](COS(=O)(=O)NC(=O)c2ccccc2O)[C@@H](O)[C@H]1O [compound 76, salicyl-adenosine monosulfamide]
- Effect on activation of TRPM2 by ADPR (1), in words (human TRPM2; [1]): noticeable antagonist activity

Molecule: Nc1ncnc2c1ncn2CCCCOP(=O)(O)OP(=O)(O)OC[C@H]1OC(O)[C@H](O)[C@@H]1O (stereo partly shown) [compound 30, 9-(4-Hydroxybutyl)adenine-5′-diphosphoribose]
- Antagonism at TRPM2 (IC50) (human TRPM2; against 100 μM ADPR (1) in pipet solution, outward current at +15 mV, HEK293 clone TRPM2#24): upper micromolar range
- Effect on activation of TRPM2 by ADPR (1), in words (human TRPM2; [4]): no inhibition
- Effect on activation of TRPM2 by ADPR (1), in words (human TRPM2; [1]): nearly complete inhibition

Molecule: copper ions
- IC50 (TRPM2 channel): 2.6 µM

Molecule: Nc1nc(F)nc2c1ncn2[C@@H]1O[C@H](COP(=O)(O)OP(=O)(O)OC[C@H]2OC(O)[C@H](O)[C@@H]2O)[C@@H](O)[C@H]1O (stereo partly shown) [compound 16, 2-F-ADPR]
- Antagonist activity at TRPM2, in words (human TRPM2; 100 μM ADPR): did not antagonize activation of TRPM2
- IC50 (human TRPM2; [3]): > 900 µM

Molecule: Nc1ncnc2c1nc(-c1ccccc1)n2[C@@H]1O[C@H](Cn2cc(COC[C@H]3OC(O)[C@H](O)[C@@H]3O)nn2)[C@@H](O)[C@H]1O (stereo partly shown) [compound 73, 1-(5′-Deoxy-8-phenyladenosine)-4-(2″,3″-O-isopropylidene-5″-O-methylribosyl)-1,2,3-triazole]
- Effect on activation of TRPM2 by ADPR (1), in words (human TRPM2; [4]): none of these compounds showed antagonist activity
- IC50 (human TRPM2; [2]): > 900 µM

Molecule: Nc1ncnc2c1ncn2[C@H]1C[C@H](O)[C@@H](COP(=O)(O)O)O1 [compound 31, 2′-deoxy-AMP, reference compound]
- Antagonist activity at TRPM2, in words (human TRPM2; 100 μM ADPR): weak antagonist
- IC50 (human TRPM2; [5]): 100 to 900 µM
- Effect on activation of TRPM2 by ADPR (1), in words (human TRPM2; [4]): antagonist effect was lost
- Effect on activation of TRPM2 by ADPR (1), in words (human TRPM2; [1]): suppressed activation of TRPM2

Molecule: Nc1ncnc2c1ncn2[C@@H]1O[C@H](CNc2c(NC3CCCC3)c(=O)c2=O)[C@@H](O)[C@H]1O [compound 65, 3-(5′-Amino-5′-deoxyadenosine)-4-(cyclopentylamino)-cyclobut-3-ene-1,2-dione]
- IC50 (human TRPM2; [2]): > 900 µM

Molecule: Nc1ncnc2c1ncn2[C@@H]1O[C@H](COP(=O)(O)OP(=O)(O)O)[C@@H](O)[C@H]1O [compound 44, adenosine 5′-diphosphate, reference compound]
- Antagonist activity at TRPM2, in words (human TRPM2; 100 μM ADPR): inactive

Molecule: Nc1ncnc2c1nc(-c1ccccc1)n2[C@H]1C[C@H](O)[C@@H](COP(=O)(O)OP(=O)(O)OC[C@H]2OC(O)[C@H](O)[C@@H]2O)O1 (stereo partly shown) [compound 86, 8-Phenyl-2′-deoxyadenosine-5′-diphosphoribose]
- Effect on activation of TRPM2 by ADPR (1), in words (human TRPM2; [1]): completely inhibited activation of TRPM2

Molecule: O=C(O)CN(CCOCCOCCN(CC(=O)O)CC(=O)O)CC(=O)O [EGTA, reference compound]
- Center of mass ∥ (mean movement in the y direction along fMLP gradient) (human neutrophils): 32.6 μm

Molecule: Nc1ncnc2c1ncn2[C@@H]1O[C@H](COP(=O)(O)O)[C@@H](O)[C@H]1O [compound 88, adenosine 5′-monophosphate, reference compound]
- Inhibition of ADPR-mediated currents, in words (TRPM2): not shown any inhibition
- Antagonist activity at TRPM2, in words (human TRPM2; 100 μM ADPR): no antagonist activity; also recorded: ineffective

Molecule: Nc1ncnc2c1nc(-c1ccccc1)n2[C@@H]1O[C@H](COP(=O)(O)OP(=O)(O)OC2CCCC2)[C@@H](O)[C@H]1O [compound 84]
- Effect on activation of TRPM2 by ADPR (1), in words (human TRPM2; [4]): significant antagonist activity

Molecule: Nc1ncnc2c1nc(Cl)n2[C@@H]1O[C@H](COP(=O)(O)O)[C@@H](O)[C@H]1O [compound 87, 8-Cl-AMP, reference compound]
- Effect on activation of TRPM2 by ADPR (1), in words (human TRPM2; [1]): no antagonist effect
- IC50 (human TRPM2; [3]): > 900 µM

Molecule: CCCCNc1c(NC[C@H]2O[C@@H](n3cnc4c(N)ncnc43)[C@H](O)[C@@H]2O)c(=O)c1=O [compound 66, 3-(5′-Amino-5′-deoxyadenosine)-4-butylamino-cyclobut-3-ene-1,2-dione]
- IC50 (human TRPM2; [2]): > 900 µM

Molecule: Nc1ncnc2c1nc(Br)n2[C@@H]1O[C@H](COP(=O)(O)OP(=O)(O)OC[C@H]2OC(O)[C@H](O)[C@@H]2O)[C@@H](O)[C@H]1O (stereo partly shown) [compound 4, 8-Br-ADPR, reference compound]
- Sensitivity of Ca2+ signalling and chemotaxis of murine neutrophils, in words (murine neutrophils): very sensitive
- Effect on activation of TRPM2 by ADPR (1), in words (human TRPM2; [1]): significantly inhibited TRPM2 activation

Molecule: O=c1[nH]cnc2c1ncn2[C@@H]1O[C@H](COP(=O)(O)OP(=O)(O)OC[C@H]2OC(O)[C@H](O)[C@@H]2O)[C@@H](O)[C@H]1O (stereo partly shown) [compound 13, Inosine-5′-diphosphoribose]
- Antagonist activity at TRPM2, in words (human TRPM2; 100 μM ADPR): did not antagonize activation of TRPM2
- IC50 (human TRPM2; [3]): > 900 µM

Molecule: Nc1ncnc2c1nc(-c1ccc(CC(N)C(=O)O)cc1)n2[C@@H]1O[C@H](COP(=O)(O)O)[C@@H](O)[C@H]1O (stereo partly shown) [compound 9, 8-(4-(2-Aminopropanoic acid)phenyl)adenosine-5′-monophosphate]
- IC50 (human TRPM2; [5]): 100 to 900 µM
- Effect on activation of TRPM2 by ADPR (1), in words (human TRPM2; [4]): antagonist effect was lost
- Effect on activation of TRPM2 by ADPR (1), in words (human TRPM2; [1]): suppressed activation of TRPM2

Molecule: Nc1ncnc2c1ncn2[C@@H]1O[C@H](COP(=O)(O)OP(=O)(O)OC[C@H]2OC(O)[C@H](O)[C@@H]2O)[C@@H](O)[C@H]1O (stereo partly shown) [compound 1, Adenosine 5′-diphosphoribose]
- Mean outward current of 100 μM ADPR (1) infusion (human TRPM2; control of the set of experiments for 4, n = 16): 1.13 ± 0.14 nA
- Mean outward current of 100 μM ADPR (1) infusion (human TRPM2; control of the set of experiments for 5, n = 16): 1.17 ± 0.13 nA
- Mean outward current of 100 μM ADPR (1) infusion (human TRPM2; control of the set of experiments for 6, n = 20): 1.70 ± 0.25 nA
- Mean outward current of 100 μM ADPR (1) infusion (human TRPM2; control of the set of experiments for 7, n = 22): 1.25 ± 0.14 nA
- Mean outward current of 100 μM ADPR (1) infusion (human TRPM2; control of the set of experiments for 84, n = 8): 1.44 ± 0.20 nA
- Mean outward current of 100 μM ADPR (1) infusion (human TRPM2; control of the set of experiments for 86, n = 15): 1.23 ± 0.22 nA

Molecule: Nc1ncnc2c1ncn2[C@@H]1O[C@H](CNc2c(NC[C@H]3O[C@@H](O)[C@H](O)[C@@H]3O)c(=O)c2=O)[C@@H](O)[C@H]1O [compound 64, 3-(5′-Amino-5′-deoxyadenosine)-4-(5″-amino-5″-deoxy-β-D-ribofuranose)cyclobut-3-ene-1,2-dione]
- IC50 (human TRPM2; [2]): > 900 µM

Molecule: Nc1ncnc2c1ncn2[C@@H]1O[C@H](COP(=O)(O)OP(=O)(O)OP(=O)(O)OC[C@H]2OC(O)[C@H](O)[C@@H]2O)[C@@H](O)[C@H]1O (stereo partly shown) [compound 47, Adenosine Triphosphoribose]
- Effect on activation of TRPM2 by ADPR (1), in words (human TRPM2; [1]): some antagonist effect
- IC50 (human TRPM2; [3]): > 900 µM

Source: paper PMC3873810, “Structure–Activity Relationship of Adenosine 5′-diphosphoribose at the Transient Receptor Potential Melastatin 2 (TRPM2) Channel: Rational Design of Antagonists” (Journal of Medicinal Chemistry, 2013)
